How the values were obtained:
CYP3A4 = CYP3A4 (Homo sapiens, UniProt P08684); test: CYP450 panel inhibition, CYP3A4; conditions: human liver microsomes, pH 7.4, probe testosterone
MMP-13 [1] = target: T1, MMP-13 (Homo sapiens, UniProt P45452); test: Dual inhibition kinetics; assay type: biochemical
MMP-13 [2] = target: T1, MMP-13; test: Cartilage explant assay; assay type: biochemical; conditions: read-out: inhibition of cartilage degradation
MMP-1 = conditions: read-out: IC50 MMP-1; antitarget selectivity; cited from earlier work
caspase 5 = target: T2, caspase 5 (Homo sapiens, UniProt P51878); test: Protease profiling panel, caspase 5; assay type: biochemical; conditions: 20 μM to 0.1 nM range
T2 sequence (P51878 138-434 limits assumed): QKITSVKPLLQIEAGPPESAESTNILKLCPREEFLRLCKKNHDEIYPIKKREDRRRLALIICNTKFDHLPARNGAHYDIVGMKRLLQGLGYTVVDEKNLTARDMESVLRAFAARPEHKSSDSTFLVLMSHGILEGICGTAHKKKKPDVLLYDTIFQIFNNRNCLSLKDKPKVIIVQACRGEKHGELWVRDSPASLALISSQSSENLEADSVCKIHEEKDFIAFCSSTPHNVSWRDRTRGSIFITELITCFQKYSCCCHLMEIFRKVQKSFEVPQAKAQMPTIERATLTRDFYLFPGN

MMP-8 = conditions: read-out: IC50 MMP-8; antitarget selectivity; cited from earlier work
cathepsin K = target: T3, cathepsin K (Homo sapiens, UniProt P43235); test: Protease profiling panel, cathepsin K; assay type: biochemical; conditions: read-out: highest inhibitory activity against cathepsin K
T3 sequence (P43235 115-329): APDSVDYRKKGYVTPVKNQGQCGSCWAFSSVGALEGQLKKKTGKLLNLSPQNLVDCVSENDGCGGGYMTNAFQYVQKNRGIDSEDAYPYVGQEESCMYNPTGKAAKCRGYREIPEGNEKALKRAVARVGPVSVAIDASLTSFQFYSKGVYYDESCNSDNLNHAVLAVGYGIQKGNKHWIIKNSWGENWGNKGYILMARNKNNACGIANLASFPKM

MMP-13 [3] = target: T1, MMP-13; test: Single inhibitor kinetics, MMP-13 hydrolysis of fTHP-15; assay type: biochemical

CYP3A4, sequence (P08684 whole entry): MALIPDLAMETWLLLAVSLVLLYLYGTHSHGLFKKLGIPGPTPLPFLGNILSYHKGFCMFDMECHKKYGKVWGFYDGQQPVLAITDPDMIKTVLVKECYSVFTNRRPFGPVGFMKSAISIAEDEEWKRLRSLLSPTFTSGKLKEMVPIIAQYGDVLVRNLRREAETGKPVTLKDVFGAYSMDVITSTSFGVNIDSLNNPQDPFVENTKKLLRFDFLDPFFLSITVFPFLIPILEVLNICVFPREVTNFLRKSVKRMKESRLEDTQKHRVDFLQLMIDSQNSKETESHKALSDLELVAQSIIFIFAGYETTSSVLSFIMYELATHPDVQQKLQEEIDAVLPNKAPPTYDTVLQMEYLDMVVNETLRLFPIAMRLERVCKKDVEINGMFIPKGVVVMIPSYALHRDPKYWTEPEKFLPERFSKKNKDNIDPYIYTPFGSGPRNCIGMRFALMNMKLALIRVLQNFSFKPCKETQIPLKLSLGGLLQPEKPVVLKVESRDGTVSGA

## Oc1nc(SCc2ccc(Cl)cc2)nc2c1CCC2 [Compound 1]
CYP3A4
  inhibition at 20 µM: 14%
MMP-13 [1]; 1 (0–2 μM) in combination with 6 (AHA, 0–1.25 mM), B<1 = synergistic binding
  B value (Yonetani–Theorell): < 1
MMP-13 [1]; 1 in combination with 4, B<1 = positive cooperativity
  B value (Yonetani–Theorell): < 1
MMP-13 [1]; 1 in combination with 5, B<1 = synergistic binding
  B value (Yonetani–Theorell): < 1
MMP-13 [2]
  inhibition at 10 µM: 69 ± 17%

## Cc1ccc(CSc2nc(O)c3c(n2)CCC3)cc1 [Compound 2]
CYP3A4
  inhibition at 20 µM: 20%
MMP-1
  IC50: > 40 µM
Caspase 5
  activity against caspase 5 on inspection of dose response: artifactual
MMP-8
  IC50: > 40 µM
Cathepsin K
  inhibition at 20 µM: 20%

## COC(=O)c1ccc(CSc2nc3c(c(=O)[nH]2)CCC3)cc1 [Compound 3]
MMP-1
  IC50: > 40 µM
MMP-8
  IC50: > 40 µM

## CC(=O)NO [Compound 6, N-hydroxyacetamide]
MMP-13 [3]; from fTHP-15 Ki
  pKi: 2.9
MMP-13 [3]; read-out: fTHP-15 Ki, fTHP-15 substrate, mixed inhibition model, nonlinear regression
  Ki: 1190 µM
